Reference: patent publication US20260265302A1, “PEPTIDE WITH ACTIVITY OF PROMOTING HAIR GROWTH OR INHIBITING HAIR LOSS AND USE THEREOF” (CAREGEN CO., LTD., priority 2023, published 2026)
“Also recorded” adds a separate entry of the source.

Key:
[1] = system: β-catenin; experiment: Nuclear β-catenin western blot (promotion of proliferation mechanism of hair follicle cells); format: cell-based, human; details: HHFDPC; for translocation of β-catenin from the cytoplasm to the nucleus (in words): peptides at various concentrations (FIG. 6)
Experimental: To confirm the effect of a peptide consisting of the amino acid sequence of SEQ ID NO: 1 on promoting the proliferation mechanism of hair follicle cells. Specifically, human hair follicle dermal papilla cells were seeded in a 6-well plate at a density of 4×10^5 cells/well and cultured for 24 hours. After replacing with serum-free mesenchymal stem cell medium, the cells were cultured for 24 hours. A peptide was treated at concentrations of 10 μM, 50 μM, or 100 μM, respectively, and incubated at 37° C. for 24 hours. As a positive control group, 10 ng/ml of recombinant human Wnt-3a protein was treated. After washing with PBS, nucleoproteins were isolated using a nucleoprotein extraction kit (Thermo scientific, USA) and quantified with BCA to prepare equal amounts of protein samples. The proteins separated by electrophoresis using a 10% SDS-PAGE gel were transferred to a PVDF membrane. Blocking was performed at room temperature for 30 minutes using 5% skim milk. β-catenin (cell signaling, USA) and HDAC1 (santa cruz, USA) antibodies were diluted 1:1000 in 3% BSA and reacted with the membrane at 4° C. for 16 hours. The membrane was washed three times with 0.1% PBS-T (0.1% Tween-20 in PBS) for 15 minutes each. The secondary antibody was diluted 1:2000 in 5% skim milk and reacted at room temperature for 1 hour. The membrane was then washed three times with 0.1% PBS-T (0.1% Tween-20 in PBS) for 15 minutes each. After treatment with ECL solution (GE Healthcare, USA), the membrane was detected.
The proliferation-promoting effects of a novel peptide consisting of the amino acid sequence of SEQ ID NO: 1 and a peptide consisting of the amino acid sequence of SEQ ID NO: 10 on hair follicle cells were compared. The experiment was conducted in the same manner as described in Example 3, in which HHFDPC was treated with peptides at various concentrations and the translocation of β-catenin from the cytoplasm to the nucleus was measured.

[2] = system: DKK-1; experiment: DHT-induced DKK-1 expression western blot in hair follicle dermal papilla cells; format: cell-based, human; details: HHFDPC; for inhibiting effect on DKK-1 expression (in words): DHT-induced, peptides at different concentrations (FIG. 4, FIG. 7)
Experimental: To confirm whether a peptide consisting of the amino acid sequence of SEQ ID NO: 1 inhibits the expression of DKK-1, a hair loss-related factor, in hair follicle cells. Human hair follicle dermal papilla cells were seeded in 6-well plates at a density of 4×10^5 cells/well and cultured for 24 hours. After replacing with serum-free mesenchymal stem cell medium, the cells were cultured for 24 hours. The peptides were treated at concentrations of 10 μM, 50 μM, or 100 μM, respectively, and simultaneously treated with DHT, an inducer of hair loss protein DKK-1, at a concentration of 100 nM. As a positive control group, 5 μM of finasteride, a drug that inhibits androgens, was treated. DHT is known as a hair loss hormone that increases the expression of DKK-1 (Dickkopf-related protein 1), a hair loss-inducing factor, by activating androgen receptors. After culturing at 37° C. for 24 hours, the cells were washed with PBS, treated with lysis buffer to prepare cell lysates, and equal amounts of protein samples were prepared by BCA quantification. Electrophoresis was performed using a 10% SDS-PAGE gel. Proteins separated by SDS PAGE were transferred to a PVDF membrane. Blocking was performed at room temperature for 30 minutes using 5% skim milk. DKK-1 (cell signaling, USA) antibody was diluted 1:1000 in 3% BSA and reacted with the membrane at 4° C. for 16 hours. The membrane was then washed three times with 0.1% PBS-T (0.1% Tween-20 in PBS) for 15 minutes each. The secondary antibody was diluted 1:2000 in 5% skim milk and reacted at room temperature for 1 hour. The membrane was then washed three times with 0.1% PBS-T (0.1% Tween-20 in PBS) for 15 minutes each. After treatment with ECL solution (GE Healthcare, USA), protein band detection and densitometry were performed using ImageQuant 800 (Amersham, USA).
The effect of inhibiting the expression of hair loss-related factors was compared between the novel peptide consisting of the amino acid sequence of SEQ ID NO: 1 and the peptide consisting of the amino acid sequence of SEQ ID NO: 10. The experiment was conducted in the same manner as described in Example 5, and it was confirmed whether the expression of DKK-1, a hair loss-related factor, was inhibited after treating HHFDPC with peptides at different concentrations.

[3] = system: human hair follicle dermal papilla cells; experiment: Hair follicle cell proliferation (SRB staining, absorbance 560 nm); format: cell-based; details: HHFDPC; for proliferation effect on hair follicle cells (in words): peptides at different concentrations (FIG. 1, FIG. 5)
Experimental: To confirm the effect of a peptide consisting of the amino acid sequence of SEQ ID NO: 1 on promoting the proliferation of hair follicle cells. Specifically, human hair follicle dermal papilla cells were seeded in a 96-well plate at a density of 4×10^3 cells/well and cultured for 24 hours. After replacing with serum-free mesenchymal stem cell medium, the cells were cultured for 24 hours. The above peptide was treated at concentrations of 10 μM, 50 μM, or 100 μM, respectively, and incubated at 37° C. for 72 hours. As a positive control group, 1 μM of Minoxidil, a hair loss treatment drug, was treated. After completion of culturing, the culture supernatant was removed and the cells were fixed using ethanol. After washing with PBS, staining was performed by treating with SRB solution. After washing with 1% acetic acid, cells were observed under a microscope and destained by treating with 20 mM tris solution. Cell viability was measured by measuring absorbance at a wavelength of 560 nm using a spectrophotometer (SpectraMax iD3, Molecular Devices (USA, CA)).
The proliferation effects of a novel peptide consisting of the amino acid sequence of SEQ ID NO: 1 and a peptide consisting of the amino acid sequence of SEQ ID NO: 10 disclosed in KR10-1285259 (Table 3) on hair follicle cell proliferation were compared. The experiment was conducted in the same manner as described in Example 2, and the cell proliferation effect was measured after treating HHFDPC with peptides at different concentrations.

[4] = system: c-Myc; experiment: RT-PCR expression of c-Myc in hair follicle dermal papilla cells; format: cell-based, human; details: HHFDPC, peptide 10, 50 or 100 μM, 24 hours, maximum effect (FIG. 3)
Experimental: (§1) To confirm the effect of a peptide consisting of the amino acid sequence of SEQ ID NO: 1 on promoting hair follicle cell activity. Human hair follicle dermal papilla cells were seeded in 6-well plates at a density of 4×10^5 cells/well and cultured for 24 hours. After replacing with serum-free mesenchymal stem cell medium, the cells were cultured for 24 hours. A peptide was treated at concentrations of 10 μM, 50 μM, or 100 μM, respectively, and incubated at 37° C. for 24 hours. As a positive control group, 10 ng/mL of recombinant human Wnt-3a protein was treated. After washing with PBS, RNA was isolated by treating with 300 μL of easy blue (intron, Korea). After RNA quantification, cDNA synthesis was performed using a cDNA synthesis kit (enzynomics, Korea). Electrophoresis was performed on a 1.5% agarose gel and band detection was performed using a Bio-Rad gel image system.

[5] = system: Cyclin D1; experiment: RT-PCR expression of Cyclin D1 in hair follicle dermal papilla cells; format: cell-based, human; details: HHFDPC, peptide 10, 50 or 100 μM, 24 hours, maximum effect (FIG. 3)
Experimental: as §1

[6] = system: Lef-1; experiment: RT-PCR expression of Lef-1 in hair follicle dermal papilla cells; format: cell-based, human; details: HHFDPC, peptide 10, 50 or 100 μM, 24 hours, maximum effect (FIG. 3)
Experimental: as §1

Sequence | translocation of β-catenin from the cytoplasm to the nucleus (in words) [1] | inhibiting effect on DKK-1 expression (in words) [2] | proliferation effect on hair follicle cells (in words) [3] | c-Myc expression increase compared to the control group [4] | nuclear translocation of β-catenin from the cytoplasm to the nucleus, increase ([1]; peptide 10, 50 or 100 μM, 24 hours, nucleoprotein western blot, maximum effect (FIG. 2)) | expression of β-catenin (in words) ([1]; peptide 10, 50 or 100 μM, 24 hours, western blot (FIG. 2)) | proliferation mechanism promoting activity compared with the known peptide ([1]; same concentration, SEQ ID NO: 1 vs SEQ ID NO: 10 (FIG. 6)) | Cyclin D1 expression increase compared to the control group [5] | Lef-1 expression increase compared to the control group [6] | DKK-1 expression level reduction compared to the negative control group (DHT treatment group) ([2]; high-concentration peptide treatment group, DHT 100 nM, 24 hours, western blot (FIG. 4)) | ability to inhibit the expression of DKK-1 compared with the known peptide ([2]; same concentration, SEQ ID NO: 1 vs SEQ ID NO: 10 (FIG. 7)) | proliferation increase of hair follicle cells ([3]; peptide 10, 50 or 100 μM, 72 hours, maximum effect (FIG. 1)) | hair follicle cell proliferation promotion activity compared with the known peptide ([3]; same concentration, SEQ ID NO: 1 vs SEQ ID NO: 10 (FIG. 5))
AERRRELCRC [SEQ ID NO: 10, reference compound] | promote the translocation of β-catenin from the cytoplasm to the nucleus in a concentration-dependent manner | exhibit an inhibiting effect on DKK-1 expression in a concentration-dependent manner | exhibit a proliferation effect on hair follicle cells in a concentration-dependent manner |  |  |  |  |  |  |  |  |  | 
AERRREKCRC [SEQ ID NO: 1] | promote the translocation of β-catenin from the cytoplasm to the nucleus in a concentration-dependent manner | exhibit an inhibiting effect on DKK-1 expression in a concentration-dependent manner; also recorded: inhibiting DKK-1 expression induced by DHT | proliferation was induced in a concentration-dependent manner; also recorded: exhibit a proliferation effect on hair follicle cells in a concentration-dependent manner | up to 1.62 times | up to 1.35 times | expression of β-catenin increases | significantly higher proliferation mechanism promoting activity than the known peptide | up to 1.96 times | up to 3 times | about 50% | significantly higher ability to inhibit the expression of DKK-1 than the known peptide | up to 155% | significantly higher hair follicle cell proliferation promotion activity than the known peptide
